These are literature values, as cited in patent publication US20110287437A1, “ASSAYS TO PREDICT CARDIOTOXICITY” (priority 2010, published 2011).

For data set [1] the following is noted: assessment from public literature and internal data; training set N=19.
For data set [2] the following is noted: treatment of patients; prescribing information.

As to `C#Cc1cccc(Nc2ncnc3cc(OCCOC)c(OCCOC)cc23)c1` [Tarceva], the Cardiotoxicity result in data set [1] is on record as “Negative”. In the case of `Cc1nc(Nc2ncc(C(=O)Nc3c(C)cccc3Cl)s2)cc(N2CCN(CCO)CC2)n1` [Sprycel, dasatinib], in data set [1], the Cardiotoxicity result is on record as “Positive”. In data set [2], the “Cardiotoxicity / adverse cardiac effects reported” value is “mentioned in the prescribing information”. On to `COc1cc2ncnc(Nc3ccc(F)c(Cl)c3)c2cc1OCCCN1CCOCC1` [Iressa], for which, in data set [1], the Cardiotoxicity result is “Negative”.

For `COc1cc2c(Nc3ccc(Br)cc3F)ncnc2cc1OCC1CCN(C)CC1` [Zactima], the Cardiotoxicity result in data set [1] was “Positive”. For `COc1ccc2c(O[C@@H]3C[C@H]4C(=O)N[C@]5(C(=O)O)C[C@H]5/C=C\CCCCC[C@H](NC(=O)OC5CCCC5)C(=O)N4C3)cc(-c3csc(NC(C)C)n3)nc2c1` [BILN 2061], the Cardiotoxicity entry in data set [1] is recorded as “Positive”. As for `CO[C@H]1C[C@@H]2CC[C@@H](C)[C@@](O)(O2)C(=O)C(=O)N2CCCC[C@H]2C(=O)O[C@H]([C@H](C)C[C@@H]2CC[C@@H](OCCO)[C@H](OC)C2)CC(=O)[C@H](C)/C=C(\C)[C@@H](O)[C@@H](OC)C(=O)[C@H](C)C[C@H](C)/C=C/C=C/C=C/1C` [Everolimus], the Cardiotoxicity result in data set [1] is “Positive”. Take bevacizumab: bevacizumab (Avastin): in data set [2], the “Cardiotoxicity / adverse cardiac effects reported” value is “mentioned in the prescribing information”. On to `Cc1cn(-c2cc(NC(=O)c3ccc(C)c(Nc4nccc(-c5cccnc5)n4)c3)cc(C(F)(F)F)c2)cn1` [Nilotinib], for which the Cardiotoxicity result in data set [1] was “Positive”. As for `COc1cccc2c1C(=O)c1c(O)c3c(c(O)c1C2=O)C[C@@](O)(C(=O)CO)C[C@@H]3O[C@H]1C[C@H](N)[C@H](O)[C@H](C)O1` [Doxorubicin], in data set [1], the Cardiotoxicity entry was “Positive”. As for `CNC(=O)c1cc(Oc2ccc(NC(=O)Nc3ccc(Cl)c(C(F)(F)F)c3)cc2)ccn1` [Nexavar, sorafenib], the Cardiotoxicity entry in data set [1] is “Positive”. For the same compound, the “Cardiotoxicity / adverse cardiac effects reported” value in data set [2] is “mentioned in the prescribing information”. As to `CCN(CC)CCNC(=O)c1c(C)[nH]c(/C=C2\C(=O)Nc3ccc(F)cc32)c1C` [Sutent, sunitinib], the Cardiotoxicity entry in data set [1] was “Positive”. Also, the “Cardiotoxicity / adverse cardiac effects reported” value in data set [2] is recorded as “mentioned in the prescribing information”. Turning to `CS(=O)(=O)CCNCc1ccc(-c2ccc3ncnc(Nc4ccc(OCc5cccc(F)c5)c(Cl)c4)c3c2)o1` [Tykerb], the Cardiotoxicity result in data set [1] is listed as “Negative”.
